# Residues, ends and D or L forms follow the SMILES beside them.
# Legend:
# F. oxysporum = test: Antifungal MIC assay in SFM culture media (Example 1); format: cell-based; details: in vitro, low cationic conditions; F. oxysporum
# P. capsici = test: as above; format: cell-based; details: in vitro, low cationic conditions
# B. cinerea [1] = tested on: B. cinerea
# F. graminearum = details: in vitro, low cationic conditions; F. graminearum
# Candida auris = test: Antifungal MIC in RPMI medium; details: RPMI medium rich in cations
# Candida glabrata = test: Antifungal MIC in RPMI medium; details: RPMI medium rich in cations
# [2] = tested on: Fusarium graminearum PH-1; format: cell-based; details: MIC Day 1; 96-well plate, resazurin cell viability
# Botrytis cinerea T4 = format: cell-based
# [3] = tested on: Zymoseptoria tritici IPO323; format: cell-based
# Z. tritici = test: Wheat - Zymoseptoria tritici in planta spray assay, curative; format: in vivo; details: wheat plants; 48 μM spray 24 hours after Z. tritici spores; 21 dpi
# B. cinerea [4] = test: Pepper - Botrytis cinerea in planta spray assay, preventative and curative; format: in vivo; details: pepper plants
molecule,measurement,setting,value
CC[C@H](C)[C@H](NC(=O)[C@H](CCCNC(=N)N)NC(=O)[C@@H](NC(=O)[C@@H](NC(=O)[C@H](Cc1ccccc1)NC(=O)[C@@H](NC(=O)[C@H](CCCNC(=N)N)NC(=O)[C@H](CCCNC(=N)N)NC(=O)[C@H](CCCNC(=N)N)NC(=O)[C@H](Cc1ccccc1)NC(=O)CNC(=O)[C@H](CCCNC(=N)N)NC(=O)[C@H](CS)NC(=O)[C@H](CCCNC(=N)N)NC(=O)CNC(=O)CN)C(C)C)C(C)C)[C@@H](C)O)C(=O)N[C@@H](CS)C(N)=O [GMA4C_V3A] (H-GGRCRGFRRRVFVTRIC-NH2; N-terminus assumed),Antifungal activity relative to the wild-type GMA4C_AC control,F. oxysporum,equivalent
same,Antifungal activity relative to the wild-type GMA4C_AC control,P. capsici,equivalent
same,B. cinerea MIC,B. cinerea [1],1.5 µM
same,MIC (μM) Botrytis cinerea,B. cinerea [1],3 µM
same,MIC Values (μM) against B. cinerea,B. cinerea [1],3 µM
same,SFM + 2 mM CaCl2 MIC,B. cinerea [1],>6 µM
same,SFM + 100 mM KCl MIC,B. cinerea [1],>6 µM
same,SFM + 100 mM NaCl MIC,B. cinerea [1],1.5 to 3 µM
same,SFM MIC,B. cinerea [1],3 µM
same,Antifungal activity relative to the wild-type GMA4C_AC control,"B. cinerea [1]; in vitro, low cationic conditions, B. cinerea",equivalent
same,Antifungal activity relative to the wild-type GMA4C_AC control,F. graminearum,equivalent
same,Antifungal activity against C. auris,Candida auris,show antifungal activity
same,Antifungal activity against C. glabrata,Candida glabrata,show antifungal activity
"PD101.1.1: Nicotiana sylvestris wild-type defensin SEQ ID NO: 624 with an N-terminal alanine, expressed in Pichia pastoris (KLCRRRSKTFSSSCFISEHCDKECKEKEGAKRGMCIKKSIFGRFCYCFHKCK; N-terminal alanine; listed as Nicotiana sylvestris)",F. graminearum PH-1 MIC Day1,[2],1.5 µM
same,B. cinerea T4 MIC Day1,Botrytis cinerea T4,1.5 µM
same,MIC against Z. tritici on day 1,[3],0.75 µM
same,MIC against Z. tritici on day 7,[3],1.5 µM
same,MIC against Z. tritici on day 14,[3],1.5 µM
same,Z. tritici IPO323 MIC Day 1,[3],0.75 µM
same,Z. tritici IPO323 MIC Day 7,[3],1.5 µM
same,Z. tritici IPO323 MIC Day 14,[3],1.5 µM
same,Curative protection against Septoria tritici blotch (STB),Z. tritici,reduction of STB disease symptoms
"PD122.1.1: Setaria italica wild-type defensin SEQ ID NO: 715 with an N-terminal alanine, expressed in Pichia pastoris (RRCVSQSHKFVGSCMRKSNCQHVCQTEGFPWGECRFHGGLLRRCFCNKLC; N-terminal alanine; listed as Setaria italica)",F. graminearum PH-1 MIC Day1,[2],1.5 µM
same,B. cinerea T4 MIC Day1,Botrytis cinerea T4,0.75 µM
same,Z. tritici IPO323 MIC Day 1,[3],0.75 µM
same,Z. tritici IPO323 MIC Day 7,[3],2.5 µM
same,Z. tritici IPO323 MIC Day 14,[3],3 µM
same,Curative protection against gray mold disease,"B. cinerea [4]; 24 μM spray 24 hours after B. cinerea spores, 5 dpi",reduction of gray mold disease symptoms
same,Preventative protection against gray mold disease,"B. cinerea [4]; 24 μM spray 24 hours before B. cinerea spores, 96 hpi",reduction of gray mold disease symptoms

# Reference: patent publication US20240239854A1, “ANTIMICROBIAL PEPTIDES AND MODIFICATIONS THEREOF” (Donald Danforth Plant Science Center, priority 2022, published 2024)
